Converted amounts (≈) assume the structure as drawn. Where a SMILES comes first, the peptide text is derived from it. Bridges are numbered along the chain shown (N, C = ends).
What was measured:
[1] = tested on: S. epidermidis ATCC 14990; conditions: for Minimal inhibitory concentration (MIC): ATCC 14990
[2] = tested on: S. aureus MRSA ATCC 43300; conditions: for Minimal inhibitory concentration (MIC): ATCC 43300; for antimicrobial activity compared to wild type hegrisin (in words): S. aureus MRSA ATCC 43300
S. aureus ATCC 6538 [3] = test: inhibition zone assay; conditions: 10 μg peptide per hole, 37° C., 16-18 hours
S. aureus ATCC 6538 [4] = conditions: for Minimal inhibitory concentration (MIC): ATCC 6538; for antimicrobial activity compared to wild type hegrisin (in words): S. aureus ATCC 6538, lower MIC values
human erythrocytes = test: hemolytic assay; assay type: cell-based; conditions: FIG. 2; for cell lysis (hemolysis) of human erythrocytes: peptide 0.5-500 μg/ml, 37° C., 60 minutes
Experimental: For the hemolysis assays, human erythrocytes were obtained from healthy donors, washed 3 times using sterilized PBS and re-suspended to a concentration of 2% (v/v) with PBS. The hegrisin, HCN2016-01 peptide, and plectasin (control) were diluted to concentrations of 500, 250, 125, 62.5, 32, 16, 8, 4, 2, 1, and 0.5 μg/ml. A 100 μL solution of each peptide and a 100 μL suspension of red blood cells were mixed and added to the wells of a 96-well plate. PBS was used as negative control and Triton X-100 was used as a positive control.
The samples were incubated at 37° C. for 60 minutes and gently stirred during the incubation period. Then, the samples were centrifuged at 2000 rpm for 5 minutes. A total of 100 μL of the supernatant in each well was transferred to a new 96-well plate and absorbance was measured at 490 nm using a microplate reader (Molecular Devices, USA).
For hemolysis assays, human erythrocytes were obtained from healthy donors, washed 3 times using sterilized PBS, and re-suspended to a concentration of 2% (v/v) with PBS. The HCN2016-01 peptide (SEQ ID NO: 2) and plectasin (control) were diluted to concentrations of 500; 250; 125; 62.5; 32; 16; 8; 4; 2; 1; and 0.5 μg/ml. A 100 μL of each peptide solution was mixed with a 100 μL solution of a red blood cell suspension and added to separate wells of a 96-well plate. PBS was used as negative control and Triton X-100 was used as a positive control. The samples were incubated at 37° C. for 60 minutes and gently stirred during the incubation period. The samples were then centrifuged at 2000 rpm for 5 minutes. A total of 100 μL of the supernatant in each well was transferred to a new 96-well plate and absorbance was measured at 490 nm using a microplate reader (Molecular Devices, USA).

In the case of `CC[C@H](C)[C@@H]1NC(=O)[C@H](CO)NC(=O)[C@H](CCCCN)NC(=O)[C@@H]2CSSC[C@@H](C(=O)N[C@@H](Cc3ccc(O)cc3)C(=O)O)NC(=O)[C@H](CCCCN)NC(=O)[C@@H]3CSSC[C@H](NC(=O)[C@@H]4CCCN4C(=O)[C@H](CCCCN)NC(=O)[C@H](CC(=O)O)NC(=O)[C@H](CC(N)=O)NC(=O)CNC(=O)CNC(=O)[C@H](Cc4ccccc4)NC(=O)[C@H]([C@@H](C)CC)NC(=O)[C@H]([C@@H](C)O)NC(=O)[C@@H](NC(=O)CNC(=O)[C@H](Cc4ccccc4)NC(=O)CN)CSSC[C@H](NC(=O)[C@H](Cc4ccc(O)cc4)NC(=O)CNC(=O)CNC(=O)[C@H](CCCCN)NC(=O)[C@H](Cc4ccc(O)cc4)NC(=O)CNC(=O)[C@H](CCCCN)NC1=O)C(=O)N[C@@H](CCCCN)C(=O)N[C@@H](C(C)C)C(=O)NCC(=O)NCC(=O)N[C@@H](C(C)C)C(=O)N3)C(=O)N[C@@H](Cc1c[nH]cn1)C(=O)N[C@@H](CCCNC(=N)N)C(=O)N[C@@H](Cc1c[nH]cn1)C(=O)N2` [HCN2016-03] (H-GFGCTIFGGNDKPCHRHCKSIKGYKGGYCKVGGVCKCY-OH; disulfide 4-29, 14-35, 18-37 (inferred); N-terminus and C-terminus assumed), the “Minimal inhibitory concentration (MIC)” value [1] is reported as 1.30 µg/mL (≈ 0.32 µM), the “Minimal inhibitory concentration (MIC)” value [2] is reported as 0.81 µg/mL (≈ 0.199 µM) and the “antimicrobial activity compared to wild type hegrisin (in words)” value [2] is reported as “improved antimicrobial activity”. The “Activity (antimicrobial activity relative to unmodified hegrisin, zones of growth inhibition)” value (S. aureus ATCC 6538 [3]) was 2, the “Minimal inhibitory concentration (MIC)” value (S. aureus ATCC 6538 [4]) was 1.33 µg/mL (≈ 0.327 µM) and the “antimicrobial activity compared to wild type hegrisin (in words)” value (S. aureus ATCC 6538 [4]) was “improved antimicrobial activity”.
With `CC[C@H](C)[C@@H]1NC(=O)[C@H](CO)NC(=O)[C@H](CCCCN)NC(=O)[C@@H]2CSSC[C@@H](C(=O)N[C@@H](Cc3ccc(O)cc3)C(=O)O)NC(=O)[C@H](CCCCN)NC(=O)[C@@H]3CSSC[C@H](NC(=O)[C@@H]4CCCN4C(=O)[C@H](CCCCN)NC(=O)[C@H](CC(=O)O)NC(=O)[C@H](CC(N)=O)NC(=O)CNC(=O)CNC(=O)[C@H](Cc4c[nH]c5ccccc45)NC(=O)[C@H]([C@@H](C)CC)NC(=O)[C@H]([C@@H](C)O)NC(=O)[C@@H](NC(=O)CNC(=O)[C@H](Cc4ccccc4)NC(=O)CN)CSSC[C@H](NC(=O)[C@H](Cc4ccc(O)cc4)NC(=O)CNC(=O)CNC(=O)[C@H](CCCCN)NC(=O)[C@H](Cc4ccc(O)cc4)NC(=O)CNC(=O)[C@H](CCCCN)NC1=O)C(=O)N[C@@H](CCCCN)C(=O)N[C@@H](C(C)C)C(=O)NCC(=O)NCC(=O)N[C@@H](C(C)C)C(=O)N3)C(=O)N[C@@H](Cc1c[nH]cn1)C(=O)N[C@@H](CCCNC(=N)N)C(=O)N[C@@H](Cc1c[nH]cn1)C(=O)N2` [Hegrisin, reference compound] (H-GFGCTIWGGNDKPCHRHCKSIKGYKGGYCKVGGVCKCY-OH; disulfide 4-29, 14-35, 18-37; N-terminus and C-terminus assumed) the “Minimal inhibitory concentration (MIC)” value [1] was 0.38 µg/mL (≈ 0.0926 µM), the “Minimal inhibitory concentration (MIC)” value [2] was 1.34 µg/mL (≈ 0.326 µM) and the “Activity (antimicrobial activity relative to unmodified hegrisin, zones of growth inhibition)” value (S. aureus ATCC 6538 [3]) was 1. For the same compound, the “Minimal inhibitory concentration (MIC)” value (S. aureus ATCC 6538 [4]) was 1.67 µg/mL (≈ 0.407 µM) and the “cell lysis (hemolysis) of human erythrocytes” value (human erythrocytes) was “no significant lysis”.
For `CC[C@H](C)[C@@H]1NC(=O)CNC(=O)CNC(=O)[C@H](Cc2ccccc2)NC(=O)[C@H](CCCCN)NC(=O)[C@@H]2CSSC[C@H](NC(=O)[C@H](CO)NC(=O)[C@H](Cc3c[nH]c4ccccc34)NC(=O)CN)C(=O)N[C@@H](CC(N)=O)C(=O)N[C@@H]([C@@H](C)CC)C(=O)N[C@@H](Cc3c[nH]c4ccccc34)C(=O)NCC(=O)NCC(=O)N[C@@H](CC(N)=O)C(=O)N[C@@H](CC(=O)O)C(=O)N[C@@H](CCC(=O)O)C(=O)N3CCC[C@H]3C(=O)N[C@H]3CSSC[C@H](NC1=O)C(=O)N[C@@H](CCCCN)C(=O)N[C@H](C(=O)N[C@@H](Cc1ccc(O)cc1)C(=O)O)CSSC[C@H](NC(=O)[C@H](Cc1c[nH]cn1)NC(=O)[C@H](CCC(N)=O)NC(=O)[C@H](Cc1c[nH]cn1)NC3=O)C(=O)N[C@@H](CCCCN)C(=O)N[C@@H](CO)C(=O)N[C@@H]([C@@H](C)CC)C(=O)N[C@@H](CCCNC(=N)N)C(=O)NCC(=O)N[C@@H](Cc1ccc(O)cc1)C(=O)N[C@@H](CCCNC(=N)N)C(=O)NCC(=O)NCC(=O)N[C@@H](Cc1ccc(O)cc1)C(=O)N2` [HCN2016-02] (H-GWSCNIWGGNDEPCHQHCKSIRGYRGGYCKFGGICKCY-OH; disulfide 4-29, 14-35, 18-37 (inferred); N-terminus and C-terminus assumed), the “Minimal inhibitory concentration (MIC)” value [1] was 1.40 µg/mL (≈ 0.327 µM), the “Minimal inhibitory concentration (MIC)” value [2] was 2.80 µg/mL (≈ 0.654 µM) and the “Activity (antimicrobial activity relative to unmodified hegrisin, zones of growth inhibition)” value (S. aureus ATCC 6538 [3]) was 2. The “Minimal inhibitory concentration (MIC)” value (S. aureus ATCC 6538 [4]) was 1.40 µg/mL (≈ 0.327 µM) and the “antimicrobial activity compared to wild type hegrisin (in words)” value (S. aureus ATCC 6538 [4]) was “improved antimicrobial activity”.
For `CC[C@H](C)[C@@H]1NC(=O)CNC(=O)CNC(=O)[C@H](Cc2ccccc2)NC(=O)[C@H](CCCCN)NC(=O)[C@@H]2CSSC[C@H](NC(=O)CNC(=O)[C@H](Cc3c[nH]c4ccccc34)NC(=O)CN)C(=O)NCC(=O)N[C@@H](Cc3ccccc3)C(=O)N[C@@H](Cc3ccccc3)C(=O)NCC(=O)NCC(=O)N[C@@H](CC(N)=O)C(=O)N[C@@H](CC(=O)O)C(=O)N[C@@H](CCC(=O)O)C(=O)N3CCC[C@H]3C(=O)N[C@H]3CSSC[C@H](NC1=O)C(=O)N[C@@H](CCCCN)C(=O)N[C@H](C(=O)N[C@@H](Cc1ccc(O)cc1)C(=O)O)CSSC[C@H](NC(=O)[C@H](Cc1c[nH]cn1)NC(=O)[C@H](CCC(N)=O)NC(=O)[C@H](Cc1c[nH]cn1)NC3=O)C(=O)N[C@@H](CCCCN)C(=O)N[C@@H](CO)C(=O)N[C@@H]([C@@H](C)CC)C(=O)N[C@@H](CCCNC(=N)N)C(=O)NCC(=O)N[C@@H](Cc1ccc(O)cc1)C(=O)N[C@@H](CCCNC(=N)N)C(=O)NCC(=O)NCC(=O)N[C@@H](Cc1ccc(O)cc1)C(=O)N2` [HCN2016-05] (H-GWGCGFFGGNDEPCHQHCKSIRGYRGGYCKFGGICKCY-OH; disulfide 4-29, 14-35, 18-37 (inferred); N-terminus and C-terminus assumed), the “Minimal inhibitory concentration (MIC)” value [1] was 2.80 µg/mL (≈ 0.669 µM), the “Minimal inhibitory concentration (MIC)” value [2] was 2.88 µg/mL (≈ 0.688 µM) and the “Activity (antimicrobial activity relative to unmodified hegrisin, zones of growth inhibition)” value (S. aureus ATCC 6538 [3]) was 2. For the same compound, the “Minimal inhibitory concentration (MIC)” value (S. aureus ATCC 6538 [4]) was 1.44 µg/mL (≈ 0.344 µM) and the “antimicrobial activity compared to wild type hegrisin (in words)” value (S. aureus ATCC 6538 [4]) was “improved antimicrobial activity”.
`CC[C@H](C)[C@@H]1NC(=O)CNC(=O)CNC(=O)[C@H](CC(C)C)NC(=O)[C@H](CCCCN)NC(=O)[C@@H]2CSSC[C@H](NC(=O)[C@H](CO)NC(=O)[C@H](Cc3c[nH]c4ccccc34)NC(=O)CN)C(=O)NCC(=O)N[C@@H](Cc3ccccc3)C(=O)N[C@@H](Cc3ccccc3)C(=O)NCC(=O)NCC(=O)N[C@@H](CC(N)=O)C(=O)N[C@@H](CC(=O)O)C(=O)N[C@@H](CCC(=O)O)C(=O)N3CCC[C@H]3C(=O)N[C@H]3CSSC[C@H](NC1=O)C(=O)N[C@@H](CCCCN)C(=O)N[C@H](C(=O)N[C@@H](Cc1ccc(O)cc1)C(=O)O)CSSC[C@H](NC(=O)[C@H](Cc1c[nH]cn1)NC(=O)[C@H](CCC(N)=O)NC(=O)[C@H](Cc1c[nH]cn1)NC3=O)C(=O)N[C@@H](CCCCN)C(=O)N[C@@H](CO)C(=O)N[C@@H]([C@@H](C)CC)C(=O)N[C@@H](CCCNC(=N)N)C(=O)NCC(=O)N[C@@H](Cc1ccc(O)cc1)C(=O)N[C@@H](CCCNC(=N)N)C(=O)NCC(=O)NCC(=O)N[C@@H](Cc1ccc(O)cc1)C(=O)N2` [HCN2016-04] (H-GWSCGFFGGNDEPCHQHCKSIRGYRGGYCKLGGICKCY-OH; disulfide 4-29, 14-35, 18-37 (inferred); N-terminus and C-terminus assumed) was tested, and the “Minimal inhibitory concentration (MIC)” value [1] was 0.33 µg/mL (≈ 0.0789 µM), the “antimicrobial activity compared to wild type hegrisin (in words)” value ([1]; S. epidermidis ATCC 14990) was “improved antimicrobial activity” and the “Minimal inhibitory concentration (MIC)” value [2] was 0.86 µg/mL (≈ 0.206 µM). For the same compound, the “antimicrobial activity compared to wild type hegrisin (in words)” value [2] was “improved antimicrobial activity”, the “Activity (antimicrobial activity relative to unmodified hegrisin, zones of growth inhibition)” value (S. aureus ATCC 6538 [3]) was 2 and the “Minimal inhibitory concentration (MIC)” value (S. aureus ATCC 6538 [4]) was 0.40 µg/mL (≈ 0.0956 µM). The “antimicrobial activity compared to wild type hegrisin (in words)” value (S. aureus ATCC 6538 [4]) was “improved antimicrobial activity”.
For “plectasin: defensin antimicrobial peptide isolated from the mushroom Pseudoplectania nigrella; control in the hemolysis assay (GFGCNGPWDEDDMQCHNHCKSIKGYKGGYCAKGGFVCKCY; PLECTASIN)”, the “change of cell lysis with rising concentration” value (human erythrocytes; concentration increased from 62.5 μg/ml to 500 μg/ml) was “increased significantly” and the “cell lysis (hemolysis) of human erythrocytes” value (human erythrocytes) was “lysis at nearly all concentrations”.
